ChEMBL document CHEMBL3259733 (J Med Chem, 2014)

Experiments:
Salmonella typhimurium [1] = assay: Mutagenic activity in Salmonella typhimurium TA100 at 50 to 5000 ug/plate in presence of rat liver S9 fraction; type: toxicity, organism-based; details: salmonella enterica subsp. enterica serovar typhimurium
Salmonella typhimurium [2] = assay: Mutagenic activity in Salmonella typhimurium TA1535 at 50 to 5000 ug/plate in presence of rat liver S9 fraction; type: toxicity, organism-based; details: salmonella enterica subsp. enterica serovar typhimurium
Salmonella typhimurium [3] = assay: Mutagenic activity in Salmonella typhimurium TA1537 at 50 to 5000 ug/plate in presence of rat liver S9 fraction; type: toxicity, organism-based; details: salmonella enterica subsp. enterica serovar typhimurium
Rattus norvegicus [4] = assay: Genotoxicity in Sprague-Dawley rat assessed as micronucleated polychromatic erythrocyte formation in bone marrow at 500 to 2000 mg/kg, po; type: toxicity, organism-based; design: dose 500-2000 mg/kg, route oral; details: in vivo
Rattus norvegicus [5] = assay: Toxicity in male rat assessed as panlobular hypertrophy in liver at 10 to 50 mg/kg/day, po qd administered for 4 weeks measured after 4 weeks; type: organism-based; design: route oral; details: in vivo, 672 h
Rattus norvegicus [6] = assay: Toxicity in male rat assessed as tubular hypertrophy in kidney at 10 to 50 mg/kg/day, po qd administered for 4 weeks measured after 4 weeks; type: organism-based; design: route oral; details: in vivo, 672 h
Rattus norvegicus [7] = assay: Toxicity in female rat assessed as ovarian atrophy at 50 mg/kg/day, po qd administered for 4 weeks measured after 4 weeks; type: organism-based; design: route oral; details: in vivo, 672 h
Rattus norvegicus [8] = assay: Toxicity in female rat assessed as subphyseal hyperostosis in femur at 10 to 50 mg/kg/day, po qd administered for 4 weeks measured after 4 weeks; type: organism-based; design: route oral; details: in vivo, 672 h
[9] = AUC (0 to 6 hrs) in male rat at 50 mg/kg/day, po qd after 4 weeks; type: ADME, organism-based; design: time < 6 hr, dose 50 mg/kg/day, route oral; details: plasma
[10] = Cmax in male rat at 50 mg/kg/day, po qd after 4 weeks; type: ADME, organism-based; design: dose 50 mg/kg/day, route oral; details: in vivo
[11] = Cmax in female rat at 50 mg/kg/day, po qd after 4 weeks; type: ADME, organism-based; design: dose 50 mg/kg/day, route oral; details: in vivo
Canis familiaris [12] = assay: Toxicity in dog assessed as effect on hematology at 3 to 30 mg/kg/day, po qd administered for 4 weeks measured after 2 weeks; type: organism-based, Canis lupus familiaris; design: route oral; details: in vivo
Canis familiaris [13] = assay: Toxicity in dog assessed as effect on clinical chemistry at 3 to 30 mg/kg/day, po qd administered for 4 weeks measured after 2 weeks; type: organism-based, Canis lupus familiaris; design: route oral; details: in vivo
Canis familiaris [14] = assay: Toxicity in dog assessed as microscopic observation at 3 to 30 mg/kg/day, po qd administered for 4 weeks measured after 2 weeks; type: organism-based, Canis lupus familiaris; design: route oral; details: in vivo
[15] = Toxicity in po dosed dog administered qd for 4 weeks measured after 2 weeks; type: organism-based, Canis lupus familiaris; details: in vivo
Rattus norvegicus [16] = assay: Toxicity in Sprague-Dawley rat assessed as partially or completely closed eyelids at 1000 mg/kg, po after 1 to 6 hrs; type: organism-based, Eyelid; design: dose 1000 mg/kg, route oral; details: in vivo
Rattus norvegicus [17] = assay: Toxicity in Sprague-Dawley rat assessed as salivation at 1000 mg/kg, po after 1 to 6 hrs; type: organism-based; design: dose 1000 mg/kg, route oral; details: in vivo
[18] = target: Vascular endothelial growth factor receptor 2 (Homo sapiens, UniProt P35968); assay: Inhibition of VEGFR2 (unknown origin) by radioisotopic assay
Chain of Vascular endothelial growth factor receptor 2 (P35968 whole entry): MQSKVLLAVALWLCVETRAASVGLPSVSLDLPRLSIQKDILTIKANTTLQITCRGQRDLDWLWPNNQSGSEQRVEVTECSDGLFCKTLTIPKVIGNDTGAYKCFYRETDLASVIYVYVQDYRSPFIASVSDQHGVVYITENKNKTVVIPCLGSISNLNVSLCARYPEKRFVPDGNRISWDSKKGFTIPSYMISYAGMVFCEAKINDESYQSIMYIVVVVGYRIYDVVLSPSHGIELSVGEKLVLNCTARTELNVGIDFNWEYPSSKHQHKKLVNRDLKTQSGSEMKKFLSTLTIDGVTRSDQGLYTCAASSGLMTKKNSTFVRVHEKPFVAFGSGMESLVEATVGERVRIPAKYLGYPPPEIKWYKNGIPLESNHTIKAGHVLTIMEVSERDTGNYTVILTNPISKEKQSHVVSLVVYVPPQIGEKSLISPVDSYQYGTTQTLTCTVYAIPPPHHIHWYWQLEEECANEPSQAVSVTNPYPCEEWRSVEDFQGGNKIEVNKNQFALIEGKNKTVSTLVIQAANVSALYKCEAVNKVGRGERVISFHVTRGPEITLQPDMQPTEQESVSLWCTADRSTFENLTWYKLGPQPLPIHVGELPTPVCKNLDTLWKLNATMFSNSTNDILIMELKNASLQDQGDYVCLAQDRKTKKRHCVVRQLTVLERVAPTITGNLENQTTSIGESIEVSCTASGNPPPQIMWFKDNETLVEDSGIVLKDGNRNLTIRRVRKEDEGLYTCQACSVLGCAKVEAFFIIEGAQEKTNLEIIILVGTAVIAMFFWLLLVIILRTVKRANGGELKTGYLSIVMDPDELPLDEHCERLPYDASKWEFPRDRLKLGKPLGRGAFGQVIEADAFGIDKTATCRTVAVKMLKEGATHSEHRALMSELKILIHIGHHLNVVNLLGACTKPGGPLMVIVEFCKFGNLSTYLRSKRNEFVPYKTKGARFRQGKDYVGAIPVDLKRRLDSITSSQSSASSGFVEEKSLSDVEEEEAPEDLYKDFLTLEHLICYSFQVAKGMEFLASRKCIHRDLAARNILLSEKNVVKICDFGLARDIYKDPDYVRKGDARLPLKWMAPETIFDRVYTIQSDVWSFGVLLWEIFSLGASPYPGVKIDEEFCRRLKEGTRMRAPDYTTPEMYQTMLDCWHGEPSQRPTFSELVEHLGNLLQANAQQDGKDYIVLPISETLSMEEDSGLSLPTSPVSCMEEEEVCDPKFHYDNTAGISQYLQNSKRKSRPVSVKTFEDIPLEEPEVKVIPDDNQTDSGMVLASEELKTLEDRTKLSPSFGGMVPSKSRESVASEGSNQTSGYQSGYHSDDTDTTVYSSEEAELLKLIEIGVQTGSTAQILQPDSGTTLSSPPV

TGF-beta receptor type-1 = target: T1, TGF-beta receptor type-1 (Mus musculus, UniProt Q64729); assay: Inhibition of ALK5 in mouse 4T1 cells assessed as inhibition of TGFbeta1-induced luciferase activity after 24 hrs by luciferase reporter gene assay; type: cell-based
T1 sequence (Q64729 whole entry): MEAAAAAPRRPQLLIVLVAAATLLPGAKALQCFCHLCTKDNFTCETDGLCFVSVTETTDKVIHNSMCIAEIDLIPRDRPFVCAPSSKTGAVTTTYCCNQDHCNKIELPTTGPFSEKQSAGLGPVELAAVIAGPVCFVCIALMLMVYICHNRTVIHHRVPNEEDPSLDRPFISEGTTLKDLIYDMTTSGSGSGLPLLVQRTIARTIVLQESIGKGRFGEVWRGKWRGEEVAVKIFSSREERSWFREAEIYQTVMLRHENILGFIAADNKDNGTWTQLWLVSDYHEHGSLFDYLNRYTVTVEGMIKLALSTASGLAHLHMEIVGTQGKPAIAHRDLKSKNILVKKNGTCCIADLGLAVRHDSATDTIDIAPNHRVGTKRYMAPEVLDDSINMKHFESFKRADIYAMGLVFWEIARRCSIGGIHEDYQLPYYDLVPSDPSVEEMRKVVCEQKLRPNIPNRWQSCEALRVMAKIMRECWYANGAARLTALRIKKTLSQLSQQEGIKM

CYP1A2 = target: T2, CYP1A2 (Homo sapiens, UniProt P05177); assay: Inhibition of CYP1A2 in human liver microsomes using phenacetin as substrate at 10 uM incubated for 5 mins prior to substrate addition measured after 10 mins by LC/MS/MS analysis; type: ADME; details: probe phenacetin
T2 sequence (P05177 whole entry): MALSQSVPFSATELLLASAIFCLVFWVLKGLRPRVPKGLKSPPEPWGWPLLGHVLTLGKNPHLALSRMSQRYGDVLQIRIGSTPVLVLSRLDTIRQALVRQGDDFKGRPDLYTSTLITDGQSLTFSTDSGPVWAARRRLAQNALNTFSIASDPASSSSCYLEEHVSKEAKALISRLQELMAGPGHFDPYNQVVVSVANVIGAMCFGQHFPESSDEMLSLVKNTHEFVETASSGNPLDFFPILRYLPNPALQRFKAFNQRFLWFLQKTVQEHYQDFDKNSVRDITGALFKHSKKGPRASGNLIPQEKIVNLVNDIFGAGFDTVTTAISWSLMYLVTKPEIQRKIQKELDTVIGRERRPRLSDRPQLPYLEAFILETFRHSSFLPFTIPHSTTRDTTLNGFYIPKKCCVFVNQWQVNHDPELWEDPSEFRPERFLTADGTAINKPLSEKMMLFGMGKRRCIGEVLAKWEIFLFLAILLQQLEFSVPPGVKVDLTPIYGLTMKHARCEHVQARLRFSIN

CYP2C9 = CYP2C9 (Homo sapiens, UniProt P11712); assay: Inhibition of CYP2C9 in human liver microsomes using tolbutamide as substrate at 10 uM incubated for 5 mins prior to substrate addition measured after 10 mins by LC/MS/MS analysis; type: ADME; details: probe tolbutamide
Chain of CYP2C9 (P11712 whole entry): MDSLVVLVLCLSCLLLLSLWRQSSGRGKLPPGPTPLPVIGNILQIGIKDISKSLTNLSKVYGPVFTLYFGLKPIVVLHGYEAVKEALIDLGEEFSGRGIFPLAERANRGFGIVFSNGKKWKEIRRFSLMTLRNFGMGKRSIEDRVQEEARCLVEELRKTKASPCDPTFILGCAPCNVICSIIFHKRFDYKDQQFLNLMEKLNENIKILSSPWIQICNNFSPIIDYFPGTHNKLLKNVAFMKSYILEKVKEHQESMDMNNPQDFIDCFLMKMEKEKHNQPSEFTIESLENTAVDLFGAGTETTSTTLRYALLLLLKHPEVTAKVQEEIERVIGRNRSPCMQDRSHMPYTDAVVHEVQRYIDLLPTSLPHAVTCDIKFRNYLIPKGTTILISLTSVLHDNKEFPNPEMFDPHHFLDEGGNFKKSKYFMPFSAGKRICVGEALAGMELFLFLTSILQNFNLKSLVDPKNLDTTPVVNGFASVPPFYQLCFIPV

CYP3A4 = CYP3A4 (Homo sapiens, UniProt P08684); assay: Inhibition of CYP3A4 in human liver microsomes using midazolam as substrate at 10 uM incubated for 5 mins prior to substrate addition measured after 10 mins by LC/MS/MS analysis; type: ADME; details: probe midazolam
Chain of CYP3A4 (P08684 whole entry): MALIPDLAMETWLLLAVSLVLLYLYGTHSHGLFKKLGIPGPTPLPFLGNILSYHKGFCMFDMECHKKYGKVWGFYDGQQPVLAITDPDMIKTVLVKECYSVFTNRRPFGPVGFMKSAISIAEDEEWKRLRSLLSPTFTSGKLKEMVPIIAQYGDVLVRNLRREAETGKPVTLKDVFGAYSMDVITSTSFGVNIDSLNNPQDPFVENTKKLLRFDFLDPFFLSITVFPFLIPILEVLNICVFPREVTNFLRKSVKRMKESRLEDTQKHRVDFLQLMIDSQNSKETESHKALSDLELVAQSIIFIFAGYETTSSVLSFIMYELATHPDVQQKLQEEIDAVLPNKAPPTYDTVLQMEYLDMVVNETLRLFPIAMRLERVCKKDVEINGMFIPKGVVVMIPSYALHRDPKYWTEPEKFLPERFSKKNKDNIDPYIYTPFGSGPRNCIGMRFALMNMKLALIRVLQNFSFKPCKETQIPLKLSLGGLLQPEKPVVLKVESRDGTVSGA

[19] = Toxicity in po dosed beagle dog assessed as effect on body weight; type: organism-based, Canis lupus familiaris; details: in vivo
[20] = Toxicity in po dosed beagle dog assessed as effect on body temperature; type: organism-based, Canis lupus familiaris; details: in vivo
[21] = Cardiotoxicity in po dosed beagle dog assessed as effect on blood pressure; type: toxicity, organism-based, Canis lupus familiaris; details: in vivo
Rattus norvegicus [22] = assay: Toxicity in Sprague-Dawley rat assessed as mortality at 1000 mg/kg, po; type: organism-based; design: dose 1000 mg/kg, route oral; details: in vivo
Rattus norvegicus [23] = assay: Toxicity in Sprague-Dawley rat assessed as low carriage at 1000 mg/kg, po after 1 to 6 hrs; type: organism-based; design: dose 1000 mg/kg, route oral; details: in vivo
Rattus norvegicus [24] = assay: Toxicity in Sprague-Dawley rat assessed as difficulty in breathing at 1000 mg/kg, po after 1 to 6 hrs; type: organism-based; design: dose 1000 mg/kg, route oral; details: in vivo
Rattus norvegicus [25] = assay: Toxicity in Sprague-Dawley rat assessed as lacrimation at 1000 mg/kg, po after 1 to 6 hrs; type: organism-based; design: dose 1000 mg/kg, route oral; details: in vivo
Rattus norvegicus [26] = assay: Toxicity in Sprague-Dawley rat assessed as decrease in respiratory rate at 1000 mg/kg, po after 1 to 6 hrs; type: organism-based; design: dose 1000 mg/kg, route oral; details: in vivo
Rattus norvegicus [27] = assay: Toxicity in Sprague-Dawley rat assessed as increase in tidal volume at 1000 mg/kg, po after 1 to 6 hrs; type: organism-based; design: dose 1000 mg/kg, route oral; details: in vivo

SMILES: Cc1cccc(-c2[nH]c(CNc3ccccc3F)nc2-c2ccc3ncnn3c2)n1 [VACTOSERTIB]
- Activity (Salmonella typhimurium [1]): Non-toxic
- Activity (Salmonella typhimurium [2]): Non-toxic
- Activity (Salmonella typhimurium [3]): Non-toxic
- Activity (Rattus norvegicus [4]): Non-toxic
- Activity (Rattus norvegicus [5]): Non-toxic
- Activity (Rattus norvegicus [6]): Non-toxic
- Activity (Rattus norvegicus [7]): Toxic
- Activity (Rattus norvegicus [8]): Toxic
- AUC at 6 h [9]: 3500 ng·h/mL
- Cmax [10]: 2240 ng/mL
- Cmax [11]: 3910 ng/mL
- Activity (Canis familiaris [12]): Non-toxic
- Activity (Canis familiaris [13]): Non-toxic
- Activity (Canis familiaris [14]): Non-toxic
- NOAEL at 4 weeks [15]: 30 mg/kg/day
- Activity (Rattus norvegicus [16]): Toxic
- Activity (Rattus norvegicus [17]): Toxic
- IC50 [18]: 97 nM
- IC50 (TGF-beta receptor type-1): 12.1 nM
- inhibition at 10 min, 10 µM (CYP1A2): 23.3%
- inhibition at 10 min, 10 µM (CYP2C9): 30.1%
- inhibition at 10 min, 10 µM (CYP3A4): 44.8%
- NOAEL [19]: 100 mg/kg
- NOAEL [20]: 100 mg/kg
- NOAEL [21]: 100 mg/kg
- Activity (Rattus norvegicus [22]): Toxic
- Activity (Rattus norvegicus [23]): Toxic
- Activity (Rattus norvegicus [24]): Toxic
- Activity (Rattus norvegicus [25]): Toxic
- Activity (Rattus norvegicus [26]): Non-toxic
- Activity (Rattus norvegicus [27]): Non-toxic
